Test results: patent US11795173B1, “Substituted pyridines as PARP1 inhibitors” (Xinthera, Inc., priority 2022, dated 2023)

Experiments:
MDR1 = MDR1 (Homo sapiens (Human), UniProt P08183); assay: In vitro human transporter efflux, MDCKII cells expressing MDR1; assay type: in vitro ADME; details: for Papp A→B at 2 h, 10 μM: MDCK-MDR1, pH 7.4, apical-to-basolateral, pH7.4, read-out: MDCK-MDR1 Papp AB; for Papp A→B at 2 h, 10 μM / Papp B→A at 2 h, 10 μM: 2-hour incubation; for Papp B→A at 2 h, 10 μM: MDCK-MDR1, pH 7.4, basolateral-to-apical, pH7.4, read-out: MDCK-MDR1 Papp BA; for efflux ratio at 2 h, 10 μM: MDCK-MDR1, pH 7.4, efflux ratio Papp BA/Papp AB
Chain of MDR1 (P08183 whole entry): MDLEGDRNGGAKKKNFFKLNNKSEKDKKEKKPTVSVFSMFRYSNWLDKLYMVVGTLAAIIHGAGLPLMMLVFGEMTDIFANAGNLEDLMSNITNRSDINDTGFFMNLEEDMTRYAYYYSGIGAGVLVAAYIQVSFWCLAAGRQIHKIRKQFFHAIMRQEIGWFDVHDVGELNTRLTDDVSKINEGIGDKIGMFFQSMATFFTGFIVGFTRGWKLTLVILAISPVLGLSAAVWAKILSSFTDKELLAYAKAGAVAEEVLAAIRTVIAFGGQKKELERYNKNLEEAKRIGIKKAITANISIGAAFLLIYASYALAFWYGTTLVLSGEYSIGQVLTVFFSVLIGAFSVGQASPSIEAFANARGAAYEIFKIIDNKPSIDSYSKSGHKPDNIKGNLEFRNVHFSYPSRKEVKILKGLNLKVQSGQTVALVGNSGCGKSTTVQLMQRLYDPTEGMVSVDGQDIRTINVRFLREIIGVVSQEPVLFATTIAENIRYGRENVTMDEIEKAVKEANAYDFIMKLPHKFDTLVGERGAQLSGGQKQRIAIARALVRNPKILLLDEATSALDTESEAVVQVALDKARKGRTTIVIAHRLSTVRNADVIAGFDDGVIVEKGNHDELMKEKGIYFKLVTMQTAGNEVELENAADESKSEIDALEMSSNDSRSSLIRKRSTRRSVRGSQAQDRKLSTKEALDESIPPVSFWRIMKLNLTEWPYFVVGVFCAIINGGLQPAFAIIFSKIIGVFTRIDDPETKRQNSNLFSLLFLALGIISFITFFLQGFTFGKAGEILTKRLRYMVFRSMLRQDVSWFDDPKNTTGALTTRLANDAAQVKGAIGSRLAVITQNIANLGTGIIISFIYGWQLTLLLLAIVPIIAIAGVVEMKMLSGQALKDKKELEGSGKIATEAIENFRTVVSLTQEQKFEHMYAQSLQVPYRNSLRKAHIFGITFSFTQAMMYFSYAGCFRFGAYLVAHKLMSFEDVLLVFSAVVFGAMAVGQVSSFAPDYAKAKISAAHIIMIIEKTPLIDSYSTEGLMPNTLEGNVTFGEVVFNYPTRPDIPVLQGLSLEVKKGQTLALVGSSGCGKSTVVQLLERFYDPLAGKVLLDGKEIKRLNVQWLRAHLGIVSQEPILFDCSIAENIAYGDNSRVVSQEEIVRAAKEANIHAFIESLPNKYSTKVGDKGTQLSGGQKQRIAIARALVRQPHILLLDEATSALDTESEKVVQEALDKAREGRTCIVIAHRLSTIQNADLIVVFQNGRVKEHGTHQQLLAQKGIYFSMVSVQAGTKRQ
Method: (§1) Madin-Darby canine kidney (MDCKII) cells expressing either MDR1 or BCRP were seeded onto Corning HTS Transwell® 96-well polycarbonate permeable (0.4 μm pore) supports at a density of 545,000 cells/cm^2. Cells were incubated for 4-8 days prior to assay, and monolayer integrity was assessed by measuring transepithelial electrical resistance (TEER). […] The final organic solvent concentration was 0.5% (v/v). Bidirectional (apical-to-basolateral and basolateral-to-apical) flux of the test and reference compounds was determined over a 2-hour incubation at 37° C. and 5% CO2 with a relative humidity of 95%. At the end of the incubation, samples from the apical and basolateral side were taken and then precipitated with acetonitrile containing internal standard. After centrifugation at 3200×g, supernatants were diluted 1:1 (v/v) with water and subjected to analysis via HPLC-MS/MS.
(§2) Apparent permeability (Papp, ×10^−6 cm/s) was calculated for all transport assays using the following equation: […]
(§3) Efflux ratio was determined by calculating the ratio of the Papp in the basolateral-to-apical direction to the Papp in the apical-to-basolateral direction using the following equation: […]

BCRP = BCRP (Homo sapiens (Human), UniProt Q9UNQ0); assay: In vitro human transporter efflux, MDCKII cells expressing BCRP; assay type: in vitro ADME; details: 10 μM, 2-hour incubation; for Papp A→B at 2 h, 10 μM: pH 7.4, apical-to-basolateral, pH7.4, read-out: BCRP Papp AB; for Papp B→A at 2 h, 10 μM: pH 7.4, basolateral-to-apical, pH7.4, read-out: BCRP Papp BA
Chain of BCRP (Q9UNQ0 whole entry): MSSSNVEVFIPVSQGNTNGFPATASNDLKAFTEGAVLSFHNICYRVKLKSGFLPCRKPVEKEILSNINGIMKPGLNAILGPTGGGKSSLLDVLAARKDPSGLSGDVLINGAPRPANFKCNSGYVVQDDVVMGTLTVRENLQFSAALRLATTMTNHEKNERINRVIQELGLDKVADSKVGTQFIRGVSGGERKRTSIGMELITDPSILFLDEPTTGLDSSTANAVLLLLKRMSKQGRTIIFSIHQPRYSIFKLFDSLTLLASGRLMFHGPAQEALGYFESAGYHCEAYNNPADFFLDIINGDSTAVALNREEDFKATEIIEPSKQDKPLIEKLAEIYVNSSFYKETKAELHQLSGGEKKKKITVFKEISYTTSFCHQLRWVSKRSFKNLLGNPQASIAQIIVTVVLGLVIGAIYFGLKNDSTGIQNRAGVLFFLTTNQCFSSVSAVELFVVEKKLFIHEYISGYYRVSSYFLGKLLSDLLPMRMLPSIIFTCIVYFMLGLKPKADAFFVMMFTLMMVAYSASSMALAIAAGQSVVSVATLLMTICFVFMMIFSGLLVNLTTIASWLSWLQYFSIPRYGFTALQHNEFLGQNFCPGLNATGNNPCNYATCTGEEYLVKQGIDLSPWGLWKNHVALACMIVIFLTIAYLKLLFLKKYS
Method: as §1, §2, §3

DLD-1 BRCA2(−/−) cells = assay: Cell growth inhibition assay (CellTiter-Glo), DLD-1 BRCA2(−/−); assay type: cell-based; details: Homo sapiens, DLD-1, 168 h; cell viability, CellTiter Glo 2.0, 7 days
Method: The objective of this study is to evaluate the effect of compound disclosed herein on cell proliferation through the cell viability assay in DLD-1 BRCA2(−/−) and parental isogenic pair and MDA-MB-436 (mutated BRCA1) cell lines.
DLD-1 BRCA2(−/−) and parental isogenic pair were cultured in RPMI 1640 supplemented with 10% fetal bovine serum (FBS), and MDA-MB-436 cells were cultured in DMEM supplemented with 10% FBS. Both are culture at 37° C. with 5% CO2. […] The cells were seeded into the plate in the density of 50 cells/well (DLD-1 parental), 200 cells/well (DLD-1 BRCA2−/−), or 500 cells/well (MDA-MB-436). After a short spun, the cells were cultured in a well moisturized incubator at 37° C. with 5% CO2 for 7 days without disturbance. The cell viability was measured by CellTiter Glo 2.0 assay kit (Promega, G9243), and growth inhibition rate was calculated and plotted against final compound concentration, and the data were fitted in Xfit to generate IC50.

[1] = test system: MDA-MB-436 (mutated BRCA1) cells; assay: Cell growth inhibition assay (CellTiter-Glo), MDA-MB-436; assay type: cell-based; details: Homo sapiens, MDA-MB-436, 168 h; cell viability, CellTiter Glo 2.0, 7 days
Text: The objective of this study is to evaluate the effect of compound disclosed herein on cell proliferation through the cell viability assay in DLD-1 BRCA2(−/−) and parental isogenic pair and MDA-MB-436 (mutated BRCA1) cell lines. The CellTiter-Glo (CTG) based cell viability assay is designed to determine the number of viable cells in the culture because of compound effect, by quantifying ATP, which indicates the presence of metabolically active cells.
DLD-1 BRCA2(−/−) and parental isogenic pair were cultured in RPMI 1640 supplemented with 10% fetal bovine serum (FBS), and MDA-MB-436 cells were cultured in DMEM supplemented with 10% FBS. Both are culture at 37° C. with 5% CO2. Invention compounds were distributed to the 384 well plate (Corning, 3764) using Echo acoustic liquid handler to form a 1:3 serially diluted final concentration with top dose of 10 or 30 μM. The cells were seeded into the plate in the density of 50 cells/well (DLD-1 parental), 200 cells/well (DLD-1 BRCA2−/−), or 500 cells/well (MDA-MB-436). After a short spun, the cells were cultured in a well moisturized incubator at 37° C. with 5% CO2 for 7 days without disturbance. The cell viability was measured by CellTiter Glo 2.0 assay kit (Promega, G9243), and growth inhibition rate was calculated and plotted against final compound concentration, and the data were fitted in Xfit to generate IC50.

| Papp A→B at 2 h, 10 μM (MDR1) [×10⁻⁶ cm/s] | Papp B→A at 2 h, 10 μM (MDR1) [×10⁻⁶ cm/s] | Papp A→B at 2 h, 10 μM (BCRP) [×10⁻⁶ cm/s] | Papp B→A at 2 h, 10 μM (BCRP) [×10⁻⁶ cm/s] | EC50 (DLD-1 BRCA2(−/−) cells) [nM] | EC50 [1] [nM] | efflux ratio at 2 h, 10 μM (MDR1) | SMILES |
| --- | --- | --- | --- | --- | --- | --- | --- |
| 15.1 | 23.3 | 28.2 | 23.6 | 6.6 | 4.9 |  | [2H]C([2H])([2H])NC(=O)c1ccc(N2CCN(Cc3ccc4c5c(c(=O)[nH]c4c3F)CCO5)CC2)c(F)n1 (single isomer, unassigned) [Example 22] |
|  |  |  |  | 0.64 | 0.3 |  | CNC(=O)c1ccc(N2CCN(Cc3ccc4c([nH]c(=O)c5cccn54)c3F)CC2)c(F)n1 [Example 10, 6-fluoro-5-[4-({6-fluoro-4-oxo-5H-pyrrolo[1,2-a]quinoxalin-7-yl}methyl)piperazin-1-yl]-N-methylpyridine-2-carboxamide] |
|  |  |  |  | 1.8 | 0.94 |  | CNC(=O)c1ccc(N2CCN(Cc3ccc4c([nH]c(=O)c5c(Cl)cnn54)c3F)CC2)c(F)n1 [Example 8] |
| 16.3 | 20.6 |  |  | 1 | 1.1 |  | CNC(=O)c1ccc(N2CCN(Cc3ccc4c5c(c(=O)[nH]c4c3F)CCC5)CC2)c(F)n1 [Comp. Ex. 4, reference compound] |
|  |  |  |  | 1.6 | 0.9 |  | O=C(NCC(F)F)c1ccc(N2CCN(Cc3ccc4c([nH]c(=O)c5ccnn54)c3F)CC2)c(F)n1 [Example 12] |
| 4.4 | 8.6 |  |  | 2.1 | 1.2 | 1.96 | Cc1cc2c(=O)[nH]c3c(F)c(CN4CCN(c5ccc(C(=O)NC6CC6)nc5F)CC4)ccc3n2n1 [Example 4] |
|  |  |  |  | 3.8 | 2.1 |  | CNC(=O)c1ccc(N2CCN(Cc3ccc4c([nH]c(=O)c5ccoc54)c3F)CC2)c(F)n1 [Example 6, 6-fluoro-5-[4-({6-fluoro-4-oxo-5H-furo[3,2-c]quinolin-7-yl}methyl)piperazin-1-yl]-N-methylpyridine-2-carboxamide] |
|  |  |  |  | 21 | 14 |  | CNC(=O)c1nc(C)c(N2CCN(Cc3ccc4c5c(c(=O)[nH]c4c3F)CCO5)CC2)cc1F [Example 27] |
|  |  |  |  | 9.1 | 4.3 |  | O=C(NC1CC1)c1ccc(N2CCN(Cc3ccc4c([nH]c(=O)c5ccnn54)c3F)CC2)c(F)n1 [Example 3] |
|  |  |  |  | 2.1 | 1.3 |  | CNC(=O)c1ccc(N2CCN(Cc3ccc4c([nH]c(=O)n5cccc45)c3F)CC2)c(F)n1 [Example 7, 6-fluoro-5-[4-({7-fluoro-5-oxo-6H-pyrrolo[1,2-c]quinazolin-8-yl}methyl)piperazin-1-yl]-N-methylpyridine-2-carboxamide] |
| 10.3 | 21.2 |  |  | 4.2 | 2.9 | 2.06 | CNC(=O)c1ccc(N2CCN(Cc3ccc4c([nH]c(=O)c5cc(C)nn54)c3F)CC2)c(F)n1 [Example 5] |
|  |  |  |  | 1.3 | 0.66 |  | Cc1cc2c(=O)[nH]c3c(F)c(CN4CCN(c5ccc(C(=O)NC6COC6)nc5F)CC4)ccc3n2n1 [Example 21] |
| 16.3 | 32.9 | 22.9 | 24.4 | 3.8 | 3 |  | [2H]C([2H])(c1ccc2c3c(c(=O)[nH]c2c1F)CCO3)N1CCN(c2ccc(C(=O)NC)nc2F)CC1 (single isomer, unassigned) [Example 24] |
